Laboratory results: US12071434B2, “Heterocyclic compound” (Takeda Pharmaceutical Company Limited, priority 2018, dated 2024)

The compounds below were run against T1, human orexin type 2 receptor (Homo sapiens, UniProt O43614) (assay: Measurement of orexin type 2 receptor agonist activity (calcium fluorescence, Fluo-4 AM, FDSS) in CHO cells forcibly expressing human OX2 receptor). Details: test compound 3 μM, DMSO = 0%, orexin A (human) 10 nM = 100%.
T1 construct: expressed in transfected cells
T1 sequence (O43614 1-444): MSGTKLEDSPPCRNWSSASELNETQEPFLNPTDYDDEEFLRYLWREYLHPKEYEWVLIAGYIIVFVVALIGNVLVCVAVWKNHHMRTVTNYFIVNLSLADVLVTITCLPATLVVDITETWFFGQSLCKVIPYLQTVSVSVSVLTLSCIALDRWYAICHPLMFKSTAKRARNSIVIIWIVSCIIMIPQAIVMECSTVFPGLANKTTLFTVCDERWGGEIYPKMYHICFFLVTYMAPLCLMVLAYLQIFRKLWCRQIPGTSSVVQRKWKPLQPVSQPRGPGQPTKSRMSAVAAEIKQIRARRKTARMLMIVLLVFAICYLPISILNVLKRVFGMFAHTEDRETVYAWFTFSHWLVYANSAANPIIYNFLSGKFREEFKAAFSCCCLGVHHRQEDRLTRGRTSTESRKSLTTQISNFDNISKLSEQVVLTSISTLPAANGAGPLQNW
Format: cell-based
Excerpt: To obtain a cell clone stably expressing human orexin type 2 receptor, human orexin type 2 receptor cDNA was inserted into pcDNA3.1(+) plasmid vector (Invitrogen), and a plasmid DNA for expression of human orexin type 2 receptor (pcDNA3.1(+)/hOX2R) was cloned. The plasmid DNA was introduced into CHO-dhfr cell by an electroporation method, and human orexin type 2 receptor expressing clone cells were obtained by limiting dilution method by using G418 drug resistance as a selection marker.
CHO cells forcibly expressing human OX2 receptor were seeded in each well of 384 well black transparent bottom plate (BD Falcon) at 7,500 cells/well, and cultured for one day in a 5% CO2 incubator at 37° C. After removal of the medium in the cell plate, assay buffer A containing a calcium indicator (HBSS (Thermo Fisher Scientific), 20 mM HEPES (Thermo Fisher Scientific), 0.1% BSA (Sigma-Aldrich), 2.5 μg/mL Fluo-4 AM (DOJINDO Chemical), 0.08% Pluronic F127 (DOJINDO Chemical), 1.25 mM probenecid (DOJINDO Chemical)) was added at 30 μL/well. The plate was stood for 30 min in a 5% CO2 incubator at 37° C., and further stood at room temperature for 30 min. A test compound prepared by diluting with assay buffer B (HBSS, 20 mM HEPES, 0.1% BSA) was added at 10 μL/well, and the fluorescence value was measured by FDSSpCELL (Hamamatsu Photonics K.K.) every one sec for 1 min, and thereafter every two sec for 1 min 40 sec. The activity (%) of the test compound was calculated assuming that variation in the fluorescence value when DMSO was added instead of the test compound was 0%, and variation in the fluorescence value when orexin A (human) (PEPTIDE INSTITUTE, INC.) was added at the final concentration of 10 nM was 100%.

0X2R agonist activity (3 μM, %) [%]	SMILES
101	Cc1ccc2n(c1=O)C(Cc1cccc(-c3cccc(F)c3)c1)C(NC(=O)[C@@H]1CCCO1)CC2 (mixture of isomers) [Example 26, (2S)-N-{(3SR,4SR)-4-[(3′-fluoro[1,1′-biphenyl]-3-yl)methyl]-7-methyl-6-oxo-1,3,4,6-tetrahydro-2H-quinolizin-3-yl}oxolane-2-carboxamide]
81	Cn1cc2n(c1=O)C(Cc1cccc(-c3ccccc3)c1)C(NC(=O)[C@@H]1CCCO1)CC2 (mixture of isomers) [Example 205, (2S)-N-{(5SR,6SR)-5-[([1,1′-biphenyl]-3-yl)methyl]-2-methyl-3-oxo-2,3,5,6,7,8-hexahydroimidazo[1,5-a]pyridin-6-yl}oxolane-2-carboxamide]
79	CS(=O)(=O)N[C@H]1CCc2cccc(=O)n2[C@H]1Cc1cccc(-c2ccccc2)c1 (racemic) [Example 1, rac-N-{(3S,4S)-4-[([1,1′-biphenyl]-3-yl)methyl]-6-oxo-1,3,4,6-tetrahydro-2H-quinolizin-3-yl}methanesulfonamide]
97	Cc1ccc(=O)n2c1CC[C@H](NS(C)(=O)=O)[C@@H]2Cc1cccc(-c2ccccc2)c1 (racemic) [Example 8, rac-N-{(3S,4S)-4-[([1,1′-biphenyl]-3-yl)methyl]-9-methyl-6-oxo-1,3,4,6-tetrahydro-2H-quinolizin-3-yl}methanesulfonamide]
106	CCS(=O)(=O)NC1CCc2ccc(C)c(=O)n2C1Cc1cccc(-c2ccccc2)c1 (racemic) [Example 11, rac-N-{(3S,4S)-4-[([(1,1′-biphenyl]-3-yl)methyl]-7-methyl-6-oxo-1,3,4,6-tetrahydro-2H-quinolizin-3-yl}ethanesulfonamide]
112	CS(=O)(=O)NC1CCc2ccc(C(F)(F)F)c(=O)n2C1Cc1cccc(-c2ccccc2)c1 (racemic) [Example 12, rac-N-[(3S,4S)-4-[([1,1′-biphenyl]-3-yl]methyl-6-oxo-7-(trifluoromethyl)-1,3,4,6-tetrahydro-2H-quinolizin-3-yl]methanesulfonamide]
112	Cc1cc(C)c(=O)n2c1CC[C@H](NS(C)(=O)=O)[C@@H]2Cc1cccc(-c2ccccc2)c1 (racemic) [Example 13, rac-N-{(3S,4S)-4-[([1,1′-biphenyl]-3-yl)methyl]-7,9-dimethyl-6-oxo-1,3,4,6-tetrahydro-2H-quinolizin-3-yl}methanesulfonamide]
107	Cc1cc2n(c(=O)c1)[C@@H](Cc1cccc(-c3ccccc3)c1)[C@@H](NS(C)(=O)=O)CC2 (racemic) [Example 14, rac-N-{(3S,4S)-4-[([1,1′-biphenyl]-3-yl)methyl]-8-methyl-6-oxo-1,3,4,6-tetrahydro-2H-quinolizin-3-yl}methanesulfonamide]
106	CS(=O)(=O)N[C@H]1CCc2ccc(Cl)c(=O)n2[C@H]1Cc1cccc(-c2ccccc2)c1 (racemic) [Example 15, rac-N-{(3S,4S)-4-[([1,1′-biphenyl]-3-yl)methyl]-7-chloro-6-oxo-1,3,4,6-tetrahydro-2H-quinolizin-3-yl}methanesulfonamide]
95	CS(=O)(=O)N[C@H]1CCc2ccc(F)c(=O)n2[C@H]1Cc1cccc(-c2ccccc2)c1 (racemic) [Example 16, rac-N-{(3S,4S)-4-[([1,1′-biphenyl]-3-yl)methyl]-7-fluoro-6-oxo-1,3,4,6-tetrahydro-2H-quinolizin-3-yl}methanesulfonamide]
122	Cc1cc2n(c(=O)c1C)[C@@H](Cc1cccc(-c3ccccc3)c1)[C@@H](NS(C)(=O)=O)CC2 (racemic) [Example 19, rac-N-{(3S,4S)-4-[([1,1′-biphenyl]-3-yl)methyl]-7,8-dimethyl-6-oxo-1,3,4,6-tetrahydro-2H-quinolizin-3-yl}methanesulfonamide]
113	Cc1cc(=O)n2c(c1C)CC[C@H](NS(C)(=O)=O)[C@@H]2Cc1cccc(-c2ccccc2)c1 (racemic) [Example 20, rac-N-{(3S,4S)-4-[([1,1′-biphenyl]-3-yl)methyl]-8,9-dimethyl-6-oxo-1,3,4,6-tetrahydro-2H-quinolizin-3-yl}methanesulfonamide]
101	Cc1cc(F)c2n(c1=O)[C@@H](Cc1cccc(-c3ccccc3)c1)[C@@H](NS(C)(=O)=O)CC2 (racemic) [Example 21, rac-N-{(3S,4S)-4-[([1,1′-biphenyl]-3-yl)methyl]-9-fluoro-7-methyl-6-oxo-1,3,4,6-tetrahydro-2H-quinolizin-3-yl}methanesulfonamide]
106	CS(=O)(=O)N[C@H]1CCc2ccc(C3CC3)c(=O)n2[C@H]1Cc1cccc(-c2ccccc2)c1 (racemic) [Example 22, rac-N-{(3S,4S)-4-[([1,1′-biphenyl]-3-yl)methyl]-7-cyclopropyl-6-oxo-1,3,4,6-tetrahydro-2H-quinolizin-3-yl}methanesulfonamide]
99	CCc1ccc2n(c1=O)C(Cc1cccc(-c3ccccc3)c1)C(NS(C)(=O)=O)CC2 (racemic) [Example 27, rac-N-{(3S,4S)-4-[([1,1′-biphenyl]-3-yl)methyl]-7-ethyl-6-oxo-1,3,4,6-tetrahydro-2H-quinozilin-3-yl}methanesulfonamide]
97	CS(=O)(=O)N[C@H]1CCc2ccc(C#N)c(=O)n2[C@H]1Cc1cccc(-c2ccccc2)c1 (racemic) [Example 28, rac-N-{(3S,4S)-4-[([1,1′-biphenyl]-3-yl)methyl]-7-cyano-6-oxo-1,3,4,6-tetrahydro-2H-quinolizin-3-yl}methanesulfonamide]
100	CN(C)c1ccc2n(c1=O)[C@@H](Cc1cccc(-c3ccccc3)c1)[C@@H](NS(C)(=O)=O)CC2 (racemic) [Example 31, rac-N-[(3S,4S)-4-[([1,1′-biphenyl]-3-yl)methyl]-7-(dimethylamino)-6-oxo-1,3,4,6-tetrahydro-2H-quinolizin-3-yl]methanesulfonamide]
87	CC(C)(O)c1ccc2n(c1=O)[C@@H](Cc1cccc(-c3ccccc3)c1)[C@@H](NS(C)(=O)=O)CC2 (racemic) [Example 33, rac-N-[(3S,4S)-4-[([1,1′-biphenyl]-3-yl)methyl]-7-(2-hydroxypropan-2-yl)-6-oxo-1,3,4,6-tetrahydro-2H-quinolizin-3-yl]methanesulfonamide]
105	COc1ccc2n(c1=O)[C@@H](Cc1cccc(-c3ccccc3)c1)[C@@H](NS(C)(=O)=O)CC2 (racemic) [Example 34, rac-N-{(3S,4S)-4-[([1,1′-biphenyl]-3-yl)methyl]-7-methoxy-6-oxo-1,3,4,6-tetrahydro-2H-quinolizin-3-yl}methanesulfonamide]
89	CCc1ccc2n(c1=O)C(Cc1cccc(-c3cccc(F)c3)c1F)C(NC(=O)C(=O)N(C)C)CC2 (racemic) [Example 39, rac-N~2~-{(3S,4S)-4-[2,3′-difluoro[1,1′-biphenyl]-3-yl)methyl]-7-ethyl-6-oxo-1,3,4,6-tetrahydro-2H-quinolizin-3-yl}-N~1~,N~1~-dimethylethanediamide]
93	CC(C)c1ccc2n(c1=O)[C@@H](Cc1cccc(-c3cccc(F)c3)c1F)[C@@H](NC(=O)C(=O)N(C)C)CC2 (racemic) [Example 40, rac-N~2~-[(3S,4S)-4-[(2,3′-difluoro[1,1′-biphenyl]-3-yl)methyl]-6-oxo-7-(propan-2-yl)-1,3,4,6-tetrahydro-2H-quinolizin-3-yl]-N~1~,N~1~-dimethylethanediamide]
102	Cn1ccc2c(c1=O)[C@@H](Cc1cccc(-c3ccccc3)c1)[C@@H](NS(C)(=O)=O)CC2 (racemic) [Example 46, rac-N-{(7S,8R)-8-[([1,1′-biphenyl]-3-yl)methyl]-2-methyl-1-oxo-1,2,5,6,7,8-hexahydroisoquinolin-7-yl}methanesulfonamide]
96	CCn1ccc2c(c1=O)[C@@H](Cc1cccc(-c3ccccc3)c1)[C@@H](NS(C)(=O)=O)CC2 (racemic) [Example 47, rac-N-{(7S,8R)-8-[([1,1′-biphenyl]-3-yl)methyl]-2-ethyl-1-oxo-1,2,5,6,7,8-hexahydroisoquinolin-7-yl}methanesulfonamide]
